Results taken from paper PMC4890880 (ACS infectious diseases, 2016).
Like-named read-outs stand apart in the source and are kept apart here.

What was measured:
[1] = test system: Plasmodium berghei (Pb-Luc) exoerythrocytic-stage parasites; details: for normalized signal at concentration 0.000508053 / normalized signal at concentration 0.00152416 / normalized signal at concentration 0.00457247 / normalized signal at concentration 0.0137174 / normalized signal at concentration 0.0411523 / normalized signal at concentration 0.123457 / normalized signal at concentration 0.37037 / normalized signal at concentration 1.11111 / normalized signal at concentration 3.33333 / normalized signal at concentration 10: fraction of control
[2] = test system: HepG2-A16-CD81EGFP cells; details: for IC50: read-out: Tox_IC50, HepG2 cytotoxicity
[3] = second series of columns (replicate)
[4] = sheet 2nd round, maximal inhibition in dose response
[5] = 2nd round, maximal inhibition in dose series

Structure (SMILES): CO[C@H]1CN(C)C(=O)c2cc(NC(=O)c3cccc(F)c3)ccc2OC[C@H](C)N(C)C[C@H]1C [BRD-K79512815-001-01-8]
- normalized signal at concentration 0.000508053 ([1]; first series of columns): 0.92
- normalized signal at concentration 0.00152416 ([1]; first series of columns): 0.8929
- normalized signal at concentration 0.00457247 ([1]; first series of columns): 0.8757
- normalized signal at concentration 0.0137174 ([1]; first series of columns): 1.1664
- normalized signal at concentration 0.0411523 ([1]; first series of columns): 0.9194
- normalized signal at concentration 0.123457 ([1]; first series of columns): 0.814
- normalized signal at concentration 0.37037 ([1]; first series of columns): 0.9475
- normalized signal at concentration 1.11111 ([1]; first series of columns): 0.9407
- normalized signal at concentration 3.33333 ([1]; first series of columns): 0.9302
- normalized signal at concentration 10 ([1]; first series of columns): 0.6026
- IC50 ([1]; read-out: PbLuc_IC50, sheet 2nd round, Pb-Luc exoerythrocytic stage, 10-point dose response, top concentration 10): > 10 µM
- normalized signal at concentration 0.000508053 [1, 3]: 0.9673
- normalized signal at concentration 0.00152416 [1, 3]: 1.022
- normalized signal at concentration 0.00457247 [1, 3]: 0.9573
- normalized signal at concentration 0.0137174 [1, 3]: 0.903
- normalized signal at concentration 0.0411523 [1, 3]: 0.8874
- normalized signal at concentration 0.123457 [1, 3]: 0.788
- normalized signal at concentration 0.37037 [1, 3]: 0.9616
- normalized signal at concentration 1.11111 [1, 3]: 0.8772
- normalized signal at concentration 3.33333 [1, 3]: 0.9295
- normalized signal at concentration 10 [1, 3]: 0.8924
- PbLuc_max_inhibition (%) [1, 4]: 40%
- IC50 ([2]; sheet 2nd round): > 10 µM
- Tox_max_inhibition (%) [2, 4]: 6%

Structure (SMILES): CS(=O)(=O)N1[C@H](C#N)[C@H](c2ccc(C#Cc3cccc(F)c3)cc2)[C@H]1CO [BRD-K05470326-001-01-0]
- IC50 ([2]; sheet "2nd round"): > 10 µM
- Tox_max_inhibition (%) ([2]; sheet "2nd round"): 10%

Structure (SMILES): CN1C(=O)c2cc(NC(=O)c3ccc(C(F)(F)F)cc3)ccc2OC[C@H]2O[C@H](CC(=O)NCc3ccc4c(c3)OCO4)CC[C@@H]21 [BRD-K92009254-001-01-6]
- IC50 ([2]; sheet "2nd round"): 8.97 µM
- Tox_max_inhibition (%) ([2]; sheet "2nd round"): 53%

Structure (SMILES): C[C@@H]1CN([C@H](C)CO)C(=O)c2cccc(NC(=O)c3ccc(-c4nccs4)cc3)c2O[C@@H]1CN(C)C(=O)Nc1ccc(C(F)(F)F)cc1 [BRD-K36757984-001-01-6]
- IC50 ([2]; sheet 2nd round): > 10 µM
- Tox_max_inhibition (%) [2, 4]: 2.49%

Structure (SMILES): C[C@H]1CN([C@@H](C)CO)C(=O)c2cc(/C=C/c3ccccc3)cnc2O[C@@H]1CN(C)C(=O)C1CCCCC1 [BRD-K27989629-001-01-7]
- IC50 ([2]; sheet 2nd round): > 10 µM
- Tox_max_inhibition (%) [2, 4]: 5%

Structure (SMILES): O=C(Nc1ccccc1F)N1CCCCN2[C@H](CO)[C@@H](c3ccc(/C=C/c4ccccc4)cc3)[C@@H]2C1 [BRD-K50964970-001-01-5]
- IC50 ([2]; sheet "2nd round"): > 10 µM
- Tox_max_inhibition (%) ([2]; sheet "2nd round"): 8%

Structure (SMILES): CCCNC(=O)N1[C@H](C#N)[C@H](c2ccc(C3=CCCCC3)cc2)[C@@H]1CO [BRD-K52785744-001-01-7]
- IC50 ([2]; sheet "2nd round"): 7.93 µM
- Tox_max_inhibition (%) ([2]; sheet "2nd round"): 50%

Structure (SMILES): COc1ccc(C#Cc2ccc([C@@H]3[C@@H](CO)N4CCCCN(C(=O)Nc5cccc(F)c5)C[C@H]34)cc2)cc1 [BRD-K38867404-001-01-3]
- IC50 ([2]; sheet 2nd round): > 10 µM
- Tox_max_inhibition (%) [2, 4]: 4%

Structure (SMILES): C(=C\c1ccc(C2[C@@H]3CN(Cc4nccs4)C[C@H]2N3)cc1)/c1ccccc1 (stereo partly shown) [BRD-K82593502-019-01-3]
- Tox_max_inhibition (%) [2, 5]: 13%
- IC50 ([2]; 2nd round, unit inferred): > 10 µM

Structure (SMILES): O=C(C[C@H]1C[C@@H]2c3cc(NC(=O)c4ccc5c(c4)OCO5)ccc3O[C@@H]2[C@@H](CO)O1)NCc1ccc(Oc2ccccc2)cc1 [BRD-K34781184-001-01-6]
- IC50 ([2]; sheet 2nd round): > 10 µM
- Tox_max_inhibition (%) [2, 4]: 49%

Structure (SMILES): COc1ccccc1CN1C[C@@H](C)[C@H](OC)CN(C)C(=O)c2ccc(NC(=O)Nc3ccccc3OC)cc2OC[C@H]1C [BRD-K01898236-001-01-5]
- Tox_max_inhibition (%) [2, 5]: 9%
- IC50 ([2]; 2nd round, unit inferred): > 10 µM

Structure (SMILES): O=C(C[C@H]1C[C@@H]2c3cc(NS(=O)(=O)c4ccc(F)cc4)ccc3O[C@@H]2[C@@H](CO)O1)N1CCc2ccccc2C1 [BRD-K45723650-001-01-0]
- IC50 ([2]; sheet "2nd round"): > 10 µM
- Tox_max_inhibition (%) ([2]; sheet "2nd round"): -1%

Structure (SMILES): CO[C@@H]1CN(C)C(=O)c2ccc(NC(=O)Nc3ccccc3F)cc2OC[C@@H](C)N(CC2CC2)C[C@H]1C [BRD-K88085458-001-01-6]
- IC50 ([2]; sheet "2nd round"): > 10 µM
- Tox_max_inhibition (%) ([2]; sheet "2nd round"): 6%

Structure (SMILES): O=C(Nc1ccc(Cl)cc1)N1C[C@@H]2[C@H](c3ccccc31)[C@@H](CO)N2CC1CCCCC1 [BRD-K89605819-001-01-4]
- IC50 ([2]; sheet "2nd round"): > 10 µM
- Tox_max_inhibition (%) ([2]; sheet "2nd round"): 4.75%

Structure (SMILES): CCCNC(=O)N1[C@H](C#N)[C@H](c2ccc(-c3ccccc3F)cc2)[C@@H]1CO [BRD-K81164606-001-02-5]
- Tox_max_inhibition (%) [2, 5]: 43%
- IC50 ([2]; 2nd round, unit inferred): > 10 µM

Structure (SMILES): O=C(C[C@@H]1C[C@H]2c3cc(NC(=O)c4ccc5c(c4)OCO5)ccc3O[C@H]2[C@@H](CO)O1)NCc1ccc(Oc2ccccc2)cc1 [BRD-K67862512-001-01-7]
- IC50 ([2]; sheet 2nd round): > 10 µM
- Tox_max_inhibition (%) [2, 4]: 23%

Structure (SMILES): C[C@H](CO)N1C[C@H](C)[C@H](CN(C)S(=O)(=O)c2ccc(C(F)(F)F)cc2)OCc2ccccc2-c2c(n(C)c3ccccc23)C1=O [BRD-K10380905-001-01-3]
- IC50 ([2]; sheet 2nd round): > 10 µM
- Tox_max_inhibition (%) [2, 4]: 20%

Structure (SMILES): COc1ccccc1C#Cc1ccc([C@H]2[C@@H](C#N)N(C(=O)C3CCCC3)[C@H]2CO)cc1 [BRD-K71730412-001-01-1]
- IC50 ([2]; sheet 2nd round): > 10 µM
- Tox_max_inhibition (%) [2, 4]: 13%
